Measured values from article PMC5027844 (Cancer cell, 2016).

Target: ARF6 (Homo sapiens, UniProt P62330)
Assay: fluorometric nucleotide exchange assay
Format: biochemical

Sequence of ARF6 (P62330 2-175): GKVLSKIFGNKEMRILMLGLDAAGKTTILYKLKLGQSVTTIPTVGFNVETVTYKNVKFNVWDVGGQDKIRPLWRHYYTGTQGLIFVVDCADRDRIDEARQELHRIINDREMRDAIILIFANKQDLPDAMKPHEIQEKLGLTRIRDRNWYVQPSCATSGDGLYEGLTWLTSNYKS

NAV-2729
IC50: 1000 nM
